Three molecules from US20050096360A1, “Inhibitors of semicarbazide-sensitive amine oxidase (SSAO) and VAP-1 mediated adhesion useful for treatment of diseases” (priority 2003, published 2005) can be followed below.

One may read the IC50 as the concentration that inhibits the measured activity by half.

Experiment [1] concerns the target T1, recombinant human MAO-B (Homo sapiens, UniProt P27338).
T1 construct: purchased BD Biosciences (MA, USA)
T1 sequence (P27338 1-520): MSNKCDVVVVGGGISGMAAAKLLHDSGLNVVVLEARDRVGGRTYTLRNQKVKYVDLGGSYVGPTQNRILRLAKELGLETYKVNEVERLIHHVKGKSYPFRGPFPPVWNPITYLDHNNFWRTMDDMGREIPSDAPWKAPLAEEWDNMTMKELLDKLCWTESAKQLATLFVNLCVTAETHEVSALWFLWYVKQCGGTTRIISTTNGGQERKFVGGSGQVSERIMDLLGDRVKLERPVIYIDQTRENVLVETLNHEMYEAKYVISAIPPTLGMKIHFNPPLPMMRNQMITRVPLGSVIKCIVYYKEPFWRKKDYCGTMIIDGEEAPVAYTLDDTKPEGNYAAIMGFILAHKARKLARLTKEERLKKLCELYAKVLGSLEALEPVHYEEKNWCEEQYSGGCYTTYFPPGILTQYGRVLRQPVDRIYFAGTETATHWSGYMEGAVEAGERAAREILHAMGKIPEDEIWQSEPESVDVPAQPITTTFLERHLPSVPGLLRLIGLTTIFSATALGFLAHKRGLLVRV
Nature of the experiment: Inhibition of MAO-B activity, colorimetric. The following applies: for Specificity for SSAO vs. MAO-B: ratio IC50 MAO-B to IC50 SSAO. The experiment is classed as biochemical. As for the experimental part:
(§1) The specificity of the different SSAO inhibitors was tested by determining their ability to inhibit MAO-A and MAO-B activities in vitro. Recombinant human MAO-A and human MAO-B enzymes were obtained from BD Biosciences (MA, USA). […] A pre-determined amount of inhibitor diluted in 0.2 M potassium phosphate buffer, pH 7.6, was added to each well, if required. […] Controls lacked inhibitor. The following agents were then added to a final reaction volume of 200 μl in 0.2 M potassium phosphate buffer, pH 7.6: 0.04 mg/ml of MAO-A or 0.07 mg/ml MAO-B enzyme, 15 μl of 10 mM tyramine substrate (for MAO-A), or 15 μl 100 mM benzylamine substrate (for MAO-B), and 50 μl of freshly made chromogenic solution (as above). The plates were incubated for 60 min at 37° C. The increase in absorbance, reflecting MAO activity, was measured at 490 nm using microplate spectrophotometer (Power Wave 40, Bio-Tek Inst.). Inhibition was presented as percent inhibition compared to control after correcting for background absorbance and IC50 values calculated using GraphPad Prism software.

Experiment [2] concerns the target T2, recombinant human MAO-A (Homo sapiens, UniProt P21397).
T2 construct: purchased BD Biosciences (MA, USA)
T2 sequence (P21397 1-527): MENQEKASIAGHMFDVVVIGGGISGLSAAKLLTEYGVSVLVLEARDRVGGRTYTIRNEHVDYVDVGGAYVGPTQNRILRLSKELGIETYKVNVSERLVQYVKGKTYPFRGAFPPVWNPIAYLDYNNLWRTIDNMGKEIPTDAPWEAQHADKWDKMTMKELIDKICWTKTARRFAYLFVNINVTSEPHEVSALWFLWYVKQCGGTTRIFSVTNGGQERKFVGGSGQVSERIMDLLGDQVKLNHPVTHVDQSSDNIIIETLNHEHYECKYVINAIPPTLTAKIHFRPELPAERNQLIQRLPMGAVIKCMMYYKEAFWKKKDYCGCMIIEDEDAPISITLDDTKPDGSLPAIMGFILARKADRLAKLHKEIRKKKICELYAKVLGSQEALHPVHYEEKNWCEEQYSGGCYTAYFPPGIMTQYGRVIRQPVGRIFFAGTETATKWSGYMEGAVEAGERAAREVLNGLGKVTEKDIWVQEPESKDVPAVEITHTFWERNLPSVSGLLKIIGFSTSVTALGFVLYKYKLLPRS
Nature of the experiment: Inhibition of MAO-A activity, colorimetric. The experiment is classed as biochemical. The following applies: for Specificity for SSAO vs. MAO-A: ratio IC50 MAO-A to IC50 SSAO. The procedure: as §1

Where [3] appears, read: tyramine substrate, no pre-incubation, read-out: MAO-A Inhibitory Activity IC50.

Counter-ions that a name gives are not always drawn. Like-named read-outs stand apart in the source and are kept apart here.

`C=C(CNN)c1ccc(F)cc1.Cl` [Example 8, N-[2-(4′-fluorophenyl)-allyl]-hydrazine Hydrochloride]: in experiment [1], the IC50 is 81 µM and the “Specificity for SSAO vs. MAO-B” value is given as 2,500. Moreover, the “Specificity for SSAO vs. MAO-A” value in experiment [2] came out at 69. Moreover, the IC50 in experiment [2] (setting [3]) was 2.2 µM.
For the molecule `C=C(CNN)c1ccccc1` [Example 2, Hydrochloride], in experiment [1], the half-maximal inhibitory concentration (IC50) stood at 100 µM and the “Specificity for SSAO vs. MAO-B” value is reported as 2,900. In experiment [2], the IC50 stood at 225 µM and the “Specificity for SSAO vs. MAO-A” value is given as 6,400.
As to `Cl.NNC/C(=C/F)c1ccccc1` [Example 10, (E)-1-fluoro-2-phenyl-3-hydrazinopropene Hydrochloride], in experiment [1], the half-maximal inhibitory concentration (IC50) was found to be 0.65 µM and the “Specificity for SSAO vs. MAO-B” value was determined as 10. Also, the “Specificity for SSAO vs. MAO-A” value in experiment [2] stood at 43. Besides, the half-maximal inhibitory concentration (IC50) in experiment [2] (setting [3]) worked out at 2.8 µM.
